Key:
[1] = system: diet-induced obese (DIO) mice; test: Body composition and metabolism in diet-induced obese (DIO) mice; format: in vivo
Method: Experiments were performed to assess the effects of P1229 on body composition and metabolism in diet-induced obese (DIO) mice. DIO mice were purchased from Jackson Laboratories (#380050). Briefly, mice were fed a high-fat diet (HFD, 60% kcal from fat) from 6 weeks of age until 22 weeks of age (total of 16 weeks on the HFD). […] After 3 weeks of treatments, some animals were sacrificed and scanned by EchoMRI […] (FIGS. 11A-F), while others were sacrificed for tissue collection and RNA analysis. Animals were maintained on the HFD throughout the acclimatization and treatment periods. The murine version of bimagrumab used for these experiments comprises the heavy chain amino acid sequence of SEQ ID NO: 376 and the light chain sequence of SEQ ID NO: 377.

DIO mice = test: Body composition in high fat diet mice, alone and in combination with incretin mimetics; format: in vivo
Method: Experiments were performed in vivo to investigate the potential for additive or synergistic effects between exemplary ActRIIB-ECD polypeptide constructs and incretin mimetics.

[2] = mouse, in vivo, sc
Method: Evaluation of pharmacokinetic profiles.
To determine the concentration of P1229 in mouse serum samples, a 96-well plate was coated 1 h at RT with a solution of anti-ectodomain antibody (1 μg/mL in carbonate buffer, 100 μL/well). The plate was then washed three times with buffer (Biolegend #421601). Blocking buffer (1% BSA, 0.05% tween-20 in TBS, 300 μL/well) was added to each well and the plate was incubated for 1 hour at RT with shaking at 300 rpm. The plate was washed three times and Standards, QCs and sample were diluted in assay diluent (1% BSA, 0.05% tween-20 in TBS, 100 μL/well) and loaded in duplicate on the plate for 1 h30 at RT with shaking at 300 rpm. The plate was washed three times and a solution of anti-human Fc antibody conjugated to HRP (Southern Biotech #2049-05, diluted 1 in 20,000 in assay diluent, 100 μL/well) was added to each well and incubated for 1 h at RT with shaking at 300 rpm.

[3] = Co-formulation study of ectodomain-based traps with incretin mimetics (monomer content by SEC / RP-HPLC, integrity, stability); format: physicochemical
Method: In each case, the following parameters were assessed: a) monomer content (size exclusion chromatography), b) activin A and GDF-8 neutralization (cell-based assays [CBAs]), c) activin A binding (ELISA), d) GLP-1 receptor binding (ELISA).
In each case, the following parameters were assessed: a) monomer content (size exclusion chromatography), b) activin A and GDF-8 neutralization (cell-based assays [CBAs]), and c) GLP-1 receptor activation (CBA).
Given that protein aggregation can be indicative of reduced conformational stability and decreased activity, Size-Exclusion Chromatography-High Performance Liquid Chromatography (SEC-HPLC) was used to determine the purity of each ActRIIB-ECD construct. This method measured the percentage of intact monomeric species as well as the presence of aggregates and/or degradation products.
In some instances, the method used to assess the purity of an agent was based on a reversed-phase high-performance liquid chromatography (RP-HPLC) setup with a C18 column. The mobile phases consisted of acetonitrile with 0.1% formic acid (organic phase) and water with 0.1% formic acid (aqueous phase). […] Formic acid anions form an ion pair with positively charged peptides, increasing their hydrophobicity and therefore their retention time. Detection was performed using a UV detector, at 280 nm.

[4] = DIO mice, 21 days, P1229 10 mg/kg twice weekly
[5] = DIO mice, 21 days, P1229 40 mg/kg twice weekly + calorie restriction

**Q.** Which “hepatic Ahsg expression” value [1] does the source give for “P1229: hActRIIB L33W, 14 aa linker, IgG1-DL Fc; SEQ ID 211” here?
**A.** The value was “reduced Ahsg expression”.

**Q.** What about the “hepatic Fgf21 expression” value [1] of the same molecule?
**A.** The value was “reduced”.

**Q.** And the “Mss51 gene expression in gastrocnemius muscle” value ([1]; 3 weeks)?
**A.** The value was “reduced Mss51 gene expression”.

**Q.** What about the “ratio of lean mass to fat mass” value ([1]; 3 weeks) of the same molecule?
**A.** Its value is “higher”.

**Q.** And the “fat mass and lean mass (EchoMRI)” value ([1]; 3 weeks s.c., P75, P1229 25 mg/kg twice weekly, P1373 5, 20, 50 mg/kg twice weekly, P1307 20 mg/kg weekly)?
**A.** Its value is “fat loss with concomitant lean mass gain”.

**Q.** What about the “Body weight (% change from baseline)” value (DIO mice; DIO mice, 21 days s.c., P1307 20 mg/kg weekly, P1229 40 mg/kg twice weekly, semaglutide 40 μg/kg daily, tirzepatide 45 μg/kg daily, alone or combined) of the same molecule?
**A.** Its value is “+11.1%”.

**Q.** What about the “Body weight (% change from baseline)” value (DIO mice; [4]) of the same molecule?
**A.** The value was “+7.7%”.

**Q.** What about the “Fat mass (% change from baseline)” value (DIO mice; [4]) of the same molecule?
**A.** Its value is −1.6%.

**Q.** What about the “Lean mass (% change from baseline)” value (DIO mice; [4]) of the same molecule?
**A.** Its value is “+10.6%”.

**Q.** And the “Lean mass/fat mass ratio” value (DIO mice; [4])?
**A.** The value was 1.4.

**Q.** And the “Body weight (% change from baseline)” value (DIO mice; [5])?
**A.** The value was −12.8%.

**Q.** And the “Fat mass (% change from baseline)” value (DIO mice; [5])?
**A.** The value was −33.7%.

**Q.** What about the “Lean mass (% change from baseline)” value (DIO mice; [5]) of the same molecule?
**A.** Its value is “+3.5%”.

**Q.** What about the “Lean mass/fat mass ratio” value (DIO mice; [5]) of the same molecule?
**A.** Its value is 1.9.

**Q.** And the “visceral, epididymal, pericardial, peri-renal, and retroperitoneal white adipose tissue weights” value (DIO mice; DIO mice, D21)?
**A.** Its value is “not significantly affected”.

**Q.** What about the “white adipose tissue weights” value (DIO mice; DIO mice, D21, P1229 with caloric restriction) of the same molecule?
**A.** The value was “significantly decreased visceral, pericardial, and peri-renal (but not epididymal and retroperitoneal) white adipose tissue weights”.

**Q.** What about the “gastrocnemius and tibialis anterior weights” value (DIO mice; DIO mice, D21, P1229 with or without caloric restriction) of the same molecule?
**A.** Its value is “significantly increased”.

**Q.** And the “Fat mass (% change from baseline)” value (DIO mice; as E44, NMR)?
**A.** The value was “+2.7%”.

**Q.** What about the “Lean mass (% change from baseline)” value (DIO mice; as E44, NMR) of the same molecule?
**A.** The value was “+15.1%”.

**Q.** What about the “Lean mass/fat mass ratio” value (DIO mice; as E44, NMR) of the same molecule?
**A.** Its value is 1.3.

**Q.** What about the “PK profile alone versus in the co-formulation” value [2] of the same molecule?
**A.** Its value is “comparable PK profile”.

B1: P1372: hActRIIB L33W, 14 aa linker, IgG1 YTE-DL Fc; SEQ ID 231 (protein)
chain: ETRECIYYNANWELERTNQSGLERCEGEQDKRWHCYASWRNSSGTIELVKKGCWLDDFNCYDRQECVATEENPQVYFCCCEGNFCNERFTHLPEAGGPEVTYEPPPTGGGGSGGGGSGGGGTHTCPPCPAPELLGGPSVFLFPPKPKDTLYITREPEVTCVVVDVSHEDPEVKFNWYVDGVEVHNAKTKPREEQYNSTYRVVSVLTVLHQDWLNGKEYKCKVSNKALPAPIEKTISKAKGQPREPQVYTLPPSRDELTKNQVSLTCLVKGFYPSDIAVEWESNGQPENNYKTTPPVLDSDGSFFLYSKLTVDKSRWQQGNVFSCSVMHEALHNHYTQKSLSLSPG
**Q.** With B1 as the molecule, how does the “Monomer content P1372” value ([3]; D 0, P1372 40 mg/mL, semaglutide […], pH 7.5) read?
**A.** The value was 99.3%.

**Q.** What about the “Monomer Content (%) P1372” value ([3]; D 0, P1372 40 mg/mL, tirzepatide 10 mg/mL, 10 mM NaPO4, 100 mM Glycine, 75 mM sucrose (pH 7.5)) of the same molecule?
**A.** Its value is 98.9%.

**Q.** What about the “Monomer Content (%) P1372” value ([3]; D 7, 2-8° C.) of the same molecule?
**A.** Its value is 98.9%.

**Q.** And the “Monomer Content (%) P1372” value ([3]; D 7, RT)?
**A.** The value was 98.8%.

**Q.** What about the “Monomer content P1372” value ([3]; D 7 after storage at 2-8° C.) of the same molecule?
**A.** Its value is 99.3%.

**Q.** And the “Monomer content P1372” value ([3]; D 7 after storage at room temperature)?
**A.** The value was 99.2%.

**Q.** What about the “Monomer Content (%) P1372” value ([3]; D 14, 2-8° C.) of the same molecule?
**A.** Its value is 98.8%.

**Q.** What about the “Monomer Content (%) P1372” value ([3]; D 14, RT) of the same molecule?
**A.** Its value is 97.9%.

**Q.** What about the “Monomer Content (%) P1372” value ([3]; D 28, 2-8° C.) of the same molecule?
**A.** The value was 98.9%.

**Q.** What about the “Monomer Content (%) P1372” value ([3]; D 28, RT) of the same molecule?
**A.** Its value is 98.6%.

**Q.** And the “Monomer content P1372” value ([3]; D 28, storage at 2-8° C., 10 mM NaPO4, 100 mM glycine, 75 mM sucrose pH 7.5)?
**A.** Its value is 99.2%.

**Q.** And the “Monomer content P1372” value ([3]; D 28, storage at room temperature, 10 mM NaPO4, 100 mM glycine, 75 mM sucrose pH 7.5)?
**A.** Its value is 98.8%.

**Q.** And the “Monomer Content (%) P1372” value ([3]; D 56, 2-8° C.)?
**A.** Its value is 98.8%.

**Q.** And the “Monomer Content (%) P1372” value ([3]; D 56, RT)?
**A.** Its value is 98.4%.
